Results published in ChEMBL document CHEMBL1926533, “Synthesis and biological evaluation of cyclopentane-linked alkyl phosphocholines as potential anticancer agents that act by inhibiting Akt phosphorylation” (Eur J Med Chem, 2012).

How the values were obtained:
A549 [1] = experiment: Inhibition of Akt phosphorylation in insulin-stimulated human A549 cells at 10 uM treated 2 hrs before insulin stimulation measured after 30 mins by ELISA; type: cell-based
[2] = Cytotoxicity against human KATO III cells after 24 hrs by FACS analysis; type: functional, cell-based, KATO III cell
MCF7 = experiment: Cytotoxicity against human MCF7 cells after 24 hrs by FACS analysis; type: functional, cell-based; details: MCF7, 24 h
A549 [3] = experiment: Cytotoxicity against human A549 cells after 24 hrs by FACS analysis; type: functional, cell-based; details: A549, 24 h
[4] = Inhibition of Akt phosphorylation in insulin-stimulated human A549 cells treated 2 hrs before insulin stimulation measured after 30 mins by ELISA; type: cell-based
A549 [5] = experiment: Ratio of miltefosine IC50 to compound IC50 for inhibition of Akt phosphorylation in insulin-stimulated human A549 cells; type: cell-based
A549 [6] = experiment: Ratio of erufosine IC50 to compound IC50 for inhibition of Akt phosphorylation in insulin-stimulated human A549 cells; type: cell-based
A549 [7] = experiment: Ratio of perifosine IC50 to compound IC50 for inhibition of Akt phosphorylation in insulin-stimulated human A549 cells; type: cell-based

CCCCCCCCCCCCOC[C@@H]1CCC[C@H]1OP(=O)([O-])OCC[N+](C)(C)C (racemic) showed an inhibition (A549 [1]) of 36.2%, an IC50 [2] of 10.6 µM and an IC50 (MCF7) of 11.8 µM. The IC50 (A549 [3]) was 11 µM.

In the case of CCCCCCCCCCCCCOC[C@@H]1CCC[C@H]1OP(=O)([O-])OCC[N+](C)(C)C (racemic), the inhibition (A549 [1]) is reported as 65.4%, the IC50 [2] is reported as 10.2 µM and the IC50 [4] is reported as 6.6 µM. For the same compound, the IC50 (MCF7) was 7.7 µM and the IC50 (A549 [3]) was 6.1 µM.

In the case of CCCCCCCCCCCCCCCCCCOC[C@@H]1CCC[C@H]1OP(=O)([O-])OCC[N+](C)(C)C (racemic), the inhibition (A549 [1]) is reported as 63.4%, the IC50 [2] is reported as 10.4 µM and the IC50 [4] is reported as 10.3 µM. It also gave an IC50 (MCF7) of 13.8 µM and an IC50 (A549 [3]) of 10.8 µM.

Work on CCCCCCCCCCCCCCCCCCCCOC[C@@H]1CCC[C@H]1OP(=O)([O-])OCC[N+](C)(C)C (racemic) yielded a Ratio IC50 (A549 [5]) of 3, an inhibition (A549 [1]) of 74.4% and an IC50 [2] of 8.7 µM. It also gave a Ratio IC50 (A549 [6]) of 3, an IC50 [4] of 3.6 µM and a Ratio IC50 (A549 [7]) of 2. For the same compound, the IC50 (MCF7) was 10.8 µM and the IC50 (A549 [3]) was 6.4 µM.

Compound CCCCCCCCCCCCCCCCCCCCCCOC[C@@H]1CCC[C@H]1OP(=O)([O-])OCC[N+](C)(C)C (racemic) has an inhibition (A549 [1]) of 58.2%, an IC50 [2] of 11.9 µM and an IC50 [4] of 10 µM. It also gave an IC50 (MCF7) of 16.3 µM and an IC50 (A549 [3]) of 16 µM.

Work on CCCCCCCCCCCCO[C@@H]1CCC[C@H]1COP(=O)([O-])OCC[N+](C)(C)C (racemic) yielded an inhibition (A549 [1]) of 31.7%, an IC50 [2] of 10.4 µM and an IC50 (MCF7) of 14.7 µM.

CCCCCCCCCCCCCO[C@@H]1CCC[C@H]1COP(=O)([O-])OCC[N+](C)(C)C (racemic) showed an inhibition (A549 [1]) of 40.8%, an IC50 [2] of 10.1 µM and an IC50 (MCF7) of 17.8 µM. It also gave an IC50 (A549 [3]) of 9.4 µM.

Compound CCCCCCCCCCCCCCCCCCO[C@@H]1CCC[C@H]1COP(=O)([O-])OCC[N+](C)(C)C (racemic) has an inhibition (A549 [1]) of 32.4%, an IC50 [2] of 8.2 µM and an IC50 (MCF7) of 15.7 µM. It also gave an IC50 (A549 [3]) of 19.3 µM.

In the case of CCCCCCCCCCCCCCCCCCCCO[C@@H]1CCC[C@H]1COP(=O)([O-])OCC[N+](C)(C)C (racemic), the inhibition (A549 [1]) is reported as 58.9%, the IC50 [2] is reported as 7.7 µM and the IC50 [4] is reported as 9.1 µM. The IC50 (MCF7) was 15.6 µM and the IC50 (A549 [3]) was 9.8 µM.

CCCCCCCCCCCCCCCCCCCCCCO[C@@H]1CCC[C@H]1COP(=O)([O-])OCC[N+](C)(C)C (racemic) gave an inhibition (A549 [1]) of 68%, an IC50 [2] of 17.6 µM and an IC50 [4] of 6.5 µM. The IC50 (MCF7) was 19.5 µM and the IC50 (A549 [3]) was 11.1 µM.

CCCCCCCCCCCCO[C@H]1CCC[C@H]1COP(=O)([O-])OCC[N+](C)(C)C (racemic) showed an inhibition (A549 [1]) of 30.4%, an IC50 [2] of 7.4 µM and an IC50 (MCF7) of 24.2 µM. The IC50 (A549 [3]) was 26.3 µM.

Work on CCCCCCCCCCCCCO[C@H]1CCC[C@H]1COP(=O)([O-])OCC[N+](C)(C)C (racemic) yielded an inhibition (A549 [1]) of 44.7%, an IC50 [2] of 12.1 µM and an IC50 (MCF7) of 10.7 µM. For the same compound, the IC50 (A549 [3]) was 10.2 µM.

Compound CCCCCCCCCCCCCCCCCCO[C@H]1CCC[C@H]1COP(=O)([O-])OCC[N+](C)(C)C (racemic) has an inhibition (A549 [1]) of 35.2%, an IC50 [2] of 9.2 µM and an IC50 (MCF7) of 13.2 µM. The IC50 (A549 [3]) was 17.8 µM.

CCCCCCCCCCCCCCCCCCCCO[C@H]1CCC[C@H]1COP(=O)([O-])OCC[N+](C)(C)C (racemic) showed an inhibition (A549 [1]) of 54.4%, an IC50 [2] of 8.8 µM and an IC50 [4] of 16.3 µM. The IC50 (MCF7) was 16.3 µM and the IC50 (A549 [3]) was 9.7 µM.

CCCCCCCCCCCCCCCCCCCCCCO[C@H]1CCC[C@H]1COP(=O)([O-])OCC[N+](C)(C)C (racemic) gave an inhibition (A549 [1]) of 36.2%, an IC50 [2] of 8.6 µM and an IC50 (MCF7) of 12.8 µM. It also gave an IC50 (A549 [3]) of 23.3 µM.

Compound CCCCCCCCCCCCCCCCOP(=O)([O-])OCC[N+](C)(C)C [MILTEFOSINE] has an inhibition (A549 [1]) of 56.3%, an IC50 [2] of 12.1 µM and an IC50 [4] of 9.6 µM. For the same compound, the IC50 (MCF7) was 11.4 µM and the IC50 (A549 [3]) was 9.7 µM.

In the case of CCCCCCCCCCCCCCCCCCOP(=O)([O-])OC1CC[N+](C)(C)CC1 [PERIFOSINE], the inhibition (A549 [1]) is reported as 68%, the IC50 [2] is reported as 12.8 µM and the IC50 [4] is reported as 5.3 µM. For the same compound, the IC50 (MCF7) was 13.3 µM and the IC50 (A549 [3]) was 7 µM.
